From US20230406849A1, “KRAS INHIBITORS FOR TREATMENT OF CANCERS” (TYLIGAND BIOSCIENCE (SHANGHAI) LIMITED, priority 2020, published 2023)
Like-named read-outs stand apart in the source and are kept apart here.

Experiments:
[1] = tested on: human non-small cell lung cancer cells NCI-H358 with KRas G12C mutation; assay: NCI-H358 cell proliferation, CellTiter-Glo Luminescent Cell Viability Assay; assay type: cell-based; settings: for inhibition at 1 µM: 1 μM compound, read-out: Inhibition rate % (1 μM)
Text: This assay verified the inhibitory activity of the compounds of the present disclosure on the proliferation of human non-small cell lung cancer cells NCI-H358 with KRas G12C mutation by using Promega's CellTiter-Glo® Luminescent Cell Viability Assay kit.
[Test materials]: NCI-H358 cell line (Cell Resource Center, IBMS, CAMS/PUMC, Item number: 3111C0001CCC000470), 96-well transparent flat-bottomed black-walled cell culture plate (Greiner Bio one, Cat #655096), RPMI-1640 Medium (GE, Cat #SH30809.01), Fetal Bovine Serum FBS (Thermo Fisher, Cat #10099-141), CellTiter-Glo® Luminescent Cell Viability Assay Kit (Promega, Cat #G7573), PBS (Solarbio, Cat #P1020), Trypsin (Thermo Fisher, Cat #25200072), DMSO (Sigma, Cat #D2650), Methyl cellulose (SIGMA, Cat #9004-67-5).
[Experimental procedure]: 180 μL of cell suspension (RPMI1640 solution with 10% FBS and 1% methyl cellulose) was charged to a 96-well cell culture plate at a density of 1500 cells/well. A control group containing no cells, no compounds and only 3D complete medium (RPMI 1640 solution with 1! Methyl cellulose and 10% FBS) (i.e. culture medium control) and a control group containing no compounds but cells (i.e. cell control) were set. AMG510 or the following reference compounds were used as positive controls. The cell plate was placed in a cell incubator overnight. A 10-fold drug solution (RPMI1640 solution with 10% FBS and 1% DMSO) was prepared at a concentration of 10 μM, and 20 μL of this solution was added to each well of the 96-well plate seeded with cells, so that the final concentration of the compounds in each well was 1 μM, and the DMSO concentration […] replicate wells were set up for each compound. The solutions of AMG510 or the following reference compounds were prepared in the same way and added to the positive control wells. The cell plate was placed in a cell incubator and cultured for 120 h. For endpoint detection, the CellTiter-Glo reagent was melted, and the cell plate was moved to room temperature to equilibrate for 30 minutes, added with 100 µL of CellTiter-Glo to each well, and shaken on an orbital shaker for 5 minutes to fully lyse the cells. The plate was kept at room temperature for 20 minutes to stabilize the luminescence signal, and the luminescence value of each well was full wavelength scanned with a multi-functional microplate reader (Molecular Devices, Spectramax M3 microplate reader).
[Test samples] The compounds of Examples 1-39, and reference compound A
[Data Analysis] The following formula was used to calculate the cell inhibition rate under the action of each concentration of the compounds:
Inhibition rate %=[1−(LumDrug to be tested−LumCulture medium control)/(LumCell control−LUMCulture medium control)]×100%
IC50 values were calculated using GraphPad Prism 7.0 software, nonlinear Sigmoidal regression was used to fit the data to obtain a dose-response curve.

[2] = Cassette pharmacokinetic experiment in rats (IV); assay type: in vivo; settings: rat, plasma, 1 mg/kg, male SD rats, tail vein IV, 1 mg/mL each compound at 1 mL/kg
Text: 2.1 Pharmacokinetic Properties of Some Compounds of the Present Disclosure Evaluated by Cassette Pharmacokinetic Experiments in Rats.
[Test materials]: Male SD rats, age: 6-8 weeks, body weight 220-250 g, purchased from Zhaoyan (Suzhou) New Drug Research Center Co., Ltd.; Tolbutamide (Aladdin, Cat #H1401054); Sulfobutyl-(Captisol, Shandong Binzhou Zhiyuan Biological Technology Co., Ltd, Cat #20191013); Propylene glycol (15)-stearate (Solutol, Meilun Bio, Cat #50206A); DMSO (Vetec Company, Cat #WXBD0293V); acetonitrile (Sigma-Aldrich, Cat #WXBD1744V); Methanol (Sigma-Aldrich, Cat #WXBD2831V).
[Experimental procedure]: The compound combination was prepared in a solvent of 5% DMSO/10% Solutol/85% (20% Captisol), and the final concentration of each compound was 1 mg/mL. The SD rats were treated with the compound preparation in 1 mL/kg by tail vein IV injection, and blood samples were collected at the time points of 5 min, 15 min, 30 min, 1 h, 2 h, 4 h, 8 h, and 24 h via external jugular vein puncture, centrifuged at low temperature for 20 minutes to collect plasma samples, which were stored at −80° C. until analysis.
[Sample analysis]: Establishing LC-MS/MS compound analysis method
Standard curve preparation: 20 μL of lmg/mL DMSO stock solution for each compound was aspirated and transferred to […] of 50% methanol working solution, and the resulting solution was serially diluted to obtain a standard curve working solution with concentrations of 20000, 10000, 5000, 1000, 500, 100, 50, 20 and […]. Then 5 µL of this standard curve working solution was mixed with 45 μL rat blank plasma to give a standard curve with concentrations of 2000, 1000, 500, 100, 50, 10, 2 and 1 ng/mL for quantification of unknown samples.
Sample pretreatment: 50 μL of unknown plasma sample or standard curve sample was mixed with 250 μL of acetonitrile containing internal standard as a precipitant. The plasma protein was precipitated, extracted for test compounds, and centrifuged at low temperature for 20 minutes. The supernatant was taken, mixed with 0.1% formic acid aqueous solution, and 5 μL of the resulting solution was aspirated for blood concentration analysis.
[Data processing]: A standard curve was plotted using mass spectrometry software, to quantify unknown samples, and pharmacokinetic parameters are calculated by Winnonlin 8.2 using the drug concentration of unknown samples at each time point.

[3] = tested on: human non-small cell lung cancer NCI-H358 xenograft; assay: Antitumor activity in NCI-H358 xenograft mouse model; assay type: in vivo, NPSG mice; settings: NPSG mice, gavage once daily 10 mg/kg, day 14
Protocol: Tumor growth inhibitory activity of the compounds of the present disclosure was evaluated and verified in a human non-small cell lung cancer NCI-H358 xenograft mouse model.
[Test materials]: NCI-H358 cell line carrying KRAS G12C mutation, provided by KYinno Biotechnology Co., Ltd. (from ATCC, Cat #CRL-5807). NPSG mice, female, provided by Beijing Phenotek Biotechnologies Inc.
[Experimental procedure]: 5×10^6 NCI-H358 cells (containing 50% Matrigel) were inoculated subcutaneously on the right flank of 6-8 weeks old female NPSG mice, with the inoculation volume of 0.1 mL. When the average tumor size reached 160-220 mm^3, the mice were grouped randomly according to tumor size and body weight, upon which the mice were treated with compounds on the same day designated as Day 0. The mice were gavage administrated once daily at 10 mg/kg or solvent control (50 mM citrate buffer containing 10% cyclodextrin, pH5.0). Tumor volume and body weight were measured twice a week during the study. The tumor volume was calculated by the formula V=D×d×d/2, wherein D and d refer to the long and short diameter of the tumor respectively.
In addition, using the same materials and procedures as above, the tumor inhibition activity of Example 9 at different doses in the above-mentioned non-small cell lung cancer mouse model and its effect on body weight were also investigated.

| IC50 ([1]; 120 h, read-out: IC50) | IC50 ([1]; read-out: IC50 value) | AUC(0-t) [2] | clearance [2] | half-life [2] | Compound | inhibition at 1 µM ([1]; 120 h) | TGI(%) [3] | Tumor volume (mm^3) (day 14) [3] |
| --- | --- | --- | --- | --- | --- | --- | --- | --- |
| 15 nM | < 20 nM | 657 ng·h/mL | 20.9 mL/min/kg | 2.87 h | C=CC(=O)N1CCN(c2c(C#N)c(O[C@@H]3CN(C)C[C@H]3OC)nc3c(F)c(-c4ccc(F)c5sc(N)nc45)c(Cl)cc23)C[C@H]1C [Example 1, 4-((R)-4-acryloyl-3-methylpiperazin-1-yl)-7-(2-amino-7-fluorobenzo[d]thiazol-4-yl)-6-chloro-8-fluoro-2-(((3R,4R)-4-methoxy-1-methylpyrrolidin-3-yl)oxy)quinoline-3-carbonitrile] | 94.7% | 71% | 478.4 mm^3 |
| 3 nM | < 20 nM | – | – | – | C=CC(=O)N1CCN(c2c(C#N)c(O[C@@H]3CN(C)C[C@H]3OC)nc3c(F)c(-c4ccc(F)c5sc(N)nc45)c(Cl)cc23)CC1 [Example 2, 4-(4-Acryloylpiperazin-1-yl)-7-(2-amino-7-fluorobenzo[d]thiazol-4-yl)-6-chloro-8-fluoro-2-(((3R,4R)-4-methoxy-1-methylpyrrolidin-3-yl)oxy)quinoline-3-carbonitrile] | 97.6% | 69% | 497.3 mm^3 |
| 18 nM | < 20 nM | 592 ng·h/mL | 27.4 mL/min/kg | 2.66 h | C=CC(=O)N1CCN(c2c(C#N)c(-c3cccc4c3CCN(C)C4)nc3c(F)c(-c4ccc(F)c5sc(N)nc45)c(Cl)cc23)CC1 [Example 10, 4-(4-Acryloylpiperazin-1-yl)-7-(2-amino-7-fluorobenzo[d]thiazol-4-yl)-6-chloro-8-fluoro-2-(2-methyl-1,2,3,4-tetrahydroisoquinolin-5-yl)quinoline-3-carbonitrile] | 96.1% | – | – |
